According to article PMC10606064, “2-Aminothiazole-Flavonoid Hybrid Derivatives Binding to Tau Protein and Responsible for Antitumor Activity in Glioblastoma” (International Journal of Molecular Sciences, 2023):

Key:
mature Tau aggregates = target: T1, mature Tau aggregates (Homo sapiens, UniProt P10636); assay: Dissolution of preformed (mature) Tau aggregates, ThS fluorescence; format: biochemical; settings: 10, 30 and 100 µM added to ThS-labelled aggregates after 8 h, 37 °C
T1 construct: The full-length human Tau (hTau40) was expressed in a transformed E. coli BL21 (DE3) strain; made in house; host or cells: E. coli BL21 (DE3)
T1 sequence (P10636 1-441 isoform P10636-8): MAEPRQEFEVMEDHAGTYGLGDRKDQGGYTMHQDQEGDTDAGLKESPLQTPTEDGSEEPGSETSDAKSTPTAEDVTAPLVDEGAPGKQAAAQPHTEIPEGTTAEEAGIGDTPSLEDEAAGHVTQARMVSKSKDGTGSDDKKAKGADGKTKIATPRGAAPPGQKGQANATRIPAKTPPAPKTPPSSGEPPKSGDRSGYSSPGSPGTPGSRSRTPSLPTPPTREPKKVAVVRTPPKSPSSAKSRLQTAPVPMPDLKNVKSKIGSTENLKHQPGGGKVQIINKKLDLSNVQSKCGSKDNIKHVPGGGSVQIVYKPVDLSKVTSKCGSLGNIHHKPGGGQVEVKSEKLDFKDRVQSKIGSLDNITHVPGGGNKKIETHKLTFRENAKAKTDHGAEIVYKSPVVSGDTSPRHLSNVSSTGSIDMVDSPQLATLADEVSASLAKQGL
Description: Moreover, we performed a qualitative study of the ability of QCT and compounds 1, 5, and 9 to dissolve preformed Tau aggregates (Figure 3).
Eight-hour time courses were performed with ThS to monitor heparin-induced Tau aggregation by spectrofluorometry at 520 nm (37 °C), then 10, 30, and 100 µM of compounds (curves b–d) were added to the ThS-labelled Tau aggregates. A control was performed without compound (curve a).

U87 shTau cells = assay: Cell cycle by flow cytometry (propidium iodide), U87 shTau; format: cell-based, human; settings: 48 h
Description: Measurements of cell cycle from DNA content were performed by flow cytometry as described before. Briefly, 4.10^5 cells in exponential growth were seeded in 6-well plates. After 24 h, they were treated with 10 µM of compounds for 48 h. Nocodazole was used as a positive control with a concentration of 1 µM. The trypsinized cells were harvested and then centrifuged (1200 rpm, 5 min, at room temperature). The cell pellet was resuspended in 1 mL of PBS 1× at 4 °C, and then an extra 4 mL of cold PBS was added to wash the pellet. Cells were then centrifuged again (1200 rpm, 5 min, at 4 °C). To fixate the cells, the pellet was resuspended in 100 µL of cold 70% ethanol, then an additional 900 µL was added and cells were incubated for 30 min at −20 °C. After that, 9 mL of cold PBS was added, and cells were centrifuged (2000 rpm, 5 min, at 4 °C) to remove ethanol. The cell pellet was then resuspended in the staining mix containing 50 µg.mL^−1 of propidium iodide (Molecular Probes, Paris, France) and 100 µg.mL^−1 of RNAse A (Sigma-Aldrich, Saint-Quentin-Fallavier, France) in PBS for 20 min at room temperature in darkness. Samples were analyzed on a Beckman–Coulter–Gallios flow cytometer using the Kaluza for Gallios Acquisition v1.0 software. Propidium iodide was excited at 488 nm, and fluorescence was analyzed at 620 nm on channel FL-3. For the analysis, there is considerable overlap between early S phase and G1 and between late S phase and G2/M due to broadening of the distribution caused by variability in the staining of the cells and instrumental variability. Therefore, the percentages of cells in the sub-G1, G1, S, and G2/M phases of the cell cycle were calculated using the Watson et al. algorithm for cell cycle analysis in Kaluza for Gallios Analysis v2.1 software. The software automatically adjusted gates based on PI median fluorescence intensity of the cells and their frequency among total cells. The number of cells in each phase was divided by the total number of analyzed cells, and the values were reported as percentage of the total cells for each cell cycle phase.

U87 shCTRL cells = assay: Microtubule network analysis (alpha-tubulin immunofluorescence), U87 shCTRL; format: cell-based, human
Description: Cells were then fixed in 4% formaldehyde (in PBS pH 7.4) for 20 min at RT, permeabilized with PBS-Triton X-100 0.5% for 10 min at RT. Immunostaining was carried out overnight at 4 °C with a primary anti-citrate synthase antibody (dilution 1:400 in PBS-BSA 3%; SC390693; SantaCruz Biotechnologies, Heidelberg, Germany). The following day, the cells were washed then incubated with anti-mouse secondary antibody (dilution 1:800 in PBS-BSA 3%; A-11029; Invitrogen) and TRITC-phalloidin (dilution 1:2500 in PBS-BSA 3%; P1951; Sigma-Aldrich, Saint-Quentin-Fallavier, France) for 1 h at RT in the dark. For the microtubule network, the same protocol for mitochondria labeling was carried out by replacing with primary anti-α-tubulin antibody (dilution 1:400 in PBS-BSA 1% from a 1 mg/mL solution; monoclonal antibody, clone DM1A, Sigma-Aldrich, Saint-Quentin-Fallavier, France). Next, cells were washed in PBS and cover glasses were mounted with a drop of ProLong® anti-fade solution (Invitrogen). Mitochondria and cytoskeletons were imaged using a confocal laser scanning microscope (CLSM) Leica SP5 with a Leica inverted microscope, equipped with a Plan-Apochromat 63×oil immersion objective (NA = 1.4). Each image was recorded with the CLSM’s spectral mode selecting specific domains of the emission spectrum. The Alexafluor488 and FITC fluorophores were excited at 488 nm with an argon laser, and fluorescence emission was collected between 496 nm and 535 nm. The TRITC fluorophore was excited at 543 nm with a helium–neon laser, and fluorescence was collected between 560 and 620 nm. The public-domain Fiji v1.54f software was used for image analysis.
The analyses of mitochondria and microtubule networks were performed using, respectively, the ‘Mitochondria analyzer’ plugin for Fiji v1.54f software and the method described in our earlier work. Briefly, a series of images were transferred to the software and corrected for background fluorescence intensity contribution. Next, the surface of 50 single cells was measured by considering the cell shape as the boundary of labelling of actin or α-tubulin cytoskeletons (respectively for measurement on mitochondria or microtubules). Then, the mitochondria elongation and mean branch junction per mitochondria parameters, and the surface of the microtubule network, were measured by performing systematically the Otsu method to reduce all gray-level images to binary images. Note that the Otsu plugin in ImageJ is an algorithm which searches for the threshold minimizing the intra-class variance of pixel intensities, defined as a weighted sum of variances of the two classes; the local set is a circular region of interest, and the central pixel is tested against the Otsu threshold found for that region. Moreover, the ratios of microtubules on cell surfaces were calculated as percentages.

[1] = 1.25 µM, 24 h, untreated 39 ± 5%

Structure (SMILES)	Ability to dissolve mature (preformed) Tau aggregates (mature Tau aggregates)	%G1 (cells in G1 phase) (U87 shTau cells; compounds 10 µM, NOC 1 µM)	%G2/M (cells in G2/M phase) (U87 shTau cells; compounds 10 µM, NOC 1 µM)	ratio of microtubule network surface to total cell surface (U87 shCTRL cells; [1])	ratio of microtubule network surface to total cell surface (U87 shCTRL cells; 5 µM, 8 h (maximal))	ratio of microtubule network surface to total cell surface (U87 shCTRL cells; 20 µM, 24 h, untreated 39 ± 5%)	effect on cell cycle progression (U87 shTau cells; 10 µM)
Nc1nc2ccc3oc(C(=O)O)cc(=O)c3c2s1 [Compound 5]	no significant change of ThS fluorescence intensity	62 ± 5%	25 ± 1%	no effect	no effect on microtubule networks	no effect	
Nc1nc2ccc3oc(-c4cccc(Oc5ccccc5)c4)cc(=O)c3c2s1 [Compound 2, 2-amino-7-(3-phenoxyphenyl)-9H-chromeno [6,5-d]thiazol-9-one]	able to dissolve mature Tau aggregates			42.2 ± 6.7%	44.1 ± 3.8%	43.2 ± 9.3%	no significant effect on cell cycle progression
